This passage reports Ki results from ChEMBL document CHEMBL3797164, “Transfer of SAR information from hypotensive indazole to indole derivatives acting at α-adrenergic receptors: In vitro and in vivo studies” (Eur J Med Chem, 2016).

Assay [1] can be described thus: Displacement of [3H]2BFI from Imidazoline receptor 2 in Sprague-Dawley rat brain P2 membrans after […] by liquid scintillation counting. A general note: Loss of bound radioactivity is the signal in a displacement assay; it reports binding, not function.
For assay [2], the target named is T1, Adrenergic receptor alpha-2 (Rattus norvegicus, UniProt P22086+P19328+P22909).
T1 sequence (P22086 whole entry): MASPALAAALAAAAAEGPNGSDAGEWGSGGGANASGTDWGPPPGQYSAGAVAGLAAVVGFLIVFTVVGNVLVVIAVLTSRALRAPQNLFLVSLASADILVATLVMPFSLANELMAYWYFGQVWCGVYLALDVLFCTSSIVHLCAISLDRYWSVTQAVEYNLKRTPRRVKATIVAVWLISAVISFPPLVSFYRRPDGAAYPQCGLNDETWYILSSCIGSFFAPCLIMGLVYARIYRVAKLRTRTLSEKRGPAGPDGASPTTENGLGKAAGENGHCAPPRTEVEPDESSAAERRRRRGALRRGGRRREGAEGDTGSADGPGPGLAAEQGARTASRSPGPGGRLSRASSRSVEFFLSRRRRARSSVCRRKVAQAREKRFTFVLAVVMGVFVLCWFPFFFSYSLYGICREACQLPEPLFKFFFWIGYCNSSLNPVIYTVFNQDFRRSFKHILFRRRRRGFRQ
T1 sequence (P19328 whole entry): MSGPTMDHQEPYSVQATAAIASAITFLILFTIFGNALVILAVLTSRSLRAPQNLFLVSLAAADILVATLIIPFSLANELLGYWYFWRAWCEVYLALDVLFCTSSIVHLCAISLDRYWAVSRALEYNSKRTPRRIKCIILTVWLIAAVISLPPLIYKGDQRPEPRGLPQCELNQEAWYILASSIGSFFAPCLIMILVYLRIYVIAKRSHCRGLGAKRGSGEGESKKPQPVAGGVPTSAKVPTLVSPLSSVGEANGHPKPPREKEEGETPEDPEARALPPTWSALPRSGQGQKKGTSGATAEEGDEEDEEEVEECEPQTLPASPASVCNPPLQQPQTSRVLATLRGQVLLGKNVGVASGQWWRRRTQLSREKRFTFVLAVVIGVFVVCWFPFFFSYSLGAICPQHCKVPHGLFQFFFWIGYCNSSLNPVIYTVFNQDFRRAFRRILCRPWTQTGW
T1 sequence (P22909 whole entry): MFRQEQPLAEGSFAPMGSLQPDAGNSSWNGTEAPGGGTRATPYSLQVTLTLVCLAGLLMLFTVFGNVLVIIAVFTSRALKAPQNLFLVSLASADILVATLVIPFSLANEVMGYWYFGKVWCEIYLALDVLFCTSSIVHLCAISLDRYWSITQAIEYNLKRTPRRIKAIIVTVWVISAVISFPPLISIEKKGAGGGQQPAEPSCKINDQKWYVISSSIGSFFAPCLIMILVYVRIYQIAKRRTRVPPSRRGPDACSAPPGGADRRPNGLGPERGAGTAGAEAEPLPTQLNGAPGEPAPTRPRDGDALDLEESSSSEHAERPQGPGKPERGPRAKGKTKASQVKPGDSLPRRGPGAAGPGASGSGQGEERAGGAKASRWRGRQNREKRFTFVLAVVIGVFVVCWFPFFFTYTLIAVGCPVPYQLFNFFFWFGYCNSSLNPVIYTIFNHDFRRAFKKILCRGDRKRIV
Put plainly: Displacement of [3H]RX821002 from Alpha-2 adrenergic receptor in Sprague-Dawley rat brain P2 membranes after […] by liquid scintillation counting.

Assay [3] has as its target T2, Adrenergic receptor alpha-1 (Rattus norvegicus, UniProt P15823+P23944+P43140).
T2 sequence (P15823 whole entry): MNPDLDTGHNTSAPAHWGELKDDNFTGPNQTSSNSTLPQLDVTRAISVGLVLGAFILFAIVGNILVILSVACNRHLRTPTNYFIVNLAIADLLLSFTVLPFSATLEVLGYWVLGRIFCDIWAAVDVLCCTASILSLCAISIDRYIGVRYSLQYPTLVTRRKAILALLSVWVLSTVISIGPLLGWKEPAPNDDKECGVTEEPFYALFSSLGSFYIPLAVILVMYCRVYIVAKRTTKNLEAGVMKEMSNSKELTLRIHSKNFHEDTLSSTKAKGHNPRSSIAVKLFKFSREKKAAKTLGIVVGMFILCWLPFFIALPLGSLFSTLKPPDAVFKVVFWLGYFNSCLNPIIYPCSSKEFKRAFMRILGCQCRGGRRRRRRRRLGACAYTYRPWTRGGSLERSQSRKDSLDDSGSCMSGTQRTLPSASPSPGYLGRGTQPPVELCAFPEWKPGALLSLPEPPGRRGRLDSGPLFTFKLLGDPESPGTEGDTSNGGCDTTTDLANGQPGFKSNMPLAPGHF
T2 sequence (P23944 whole entry): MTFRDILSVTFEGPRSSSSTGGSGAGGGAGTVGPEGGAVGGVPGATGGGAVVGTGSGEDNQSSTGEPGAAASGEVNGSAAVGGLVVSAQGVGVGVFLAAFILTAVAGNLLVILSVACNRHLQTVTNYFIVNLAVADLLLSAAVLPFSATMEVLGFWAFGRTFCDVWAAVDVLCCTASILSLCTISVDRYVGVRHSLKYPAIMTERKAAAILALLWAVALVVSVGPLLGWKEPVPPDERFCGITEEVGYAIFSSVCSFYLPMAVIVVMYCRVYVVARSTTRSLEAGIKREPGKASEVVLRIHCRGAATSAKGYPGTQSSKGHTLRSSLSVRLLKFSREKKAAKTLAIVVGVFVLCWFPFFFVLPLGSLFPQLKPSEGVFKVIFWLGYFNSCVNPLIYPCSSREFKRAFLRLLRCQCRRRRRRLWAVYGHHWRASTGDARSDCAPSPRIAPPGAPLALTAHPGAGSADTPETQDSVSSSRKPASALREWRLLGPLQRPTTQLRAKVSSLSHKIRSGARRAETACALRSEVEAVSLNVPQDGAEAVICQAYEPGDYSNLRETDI
T2 sequence (P43140 whole entry): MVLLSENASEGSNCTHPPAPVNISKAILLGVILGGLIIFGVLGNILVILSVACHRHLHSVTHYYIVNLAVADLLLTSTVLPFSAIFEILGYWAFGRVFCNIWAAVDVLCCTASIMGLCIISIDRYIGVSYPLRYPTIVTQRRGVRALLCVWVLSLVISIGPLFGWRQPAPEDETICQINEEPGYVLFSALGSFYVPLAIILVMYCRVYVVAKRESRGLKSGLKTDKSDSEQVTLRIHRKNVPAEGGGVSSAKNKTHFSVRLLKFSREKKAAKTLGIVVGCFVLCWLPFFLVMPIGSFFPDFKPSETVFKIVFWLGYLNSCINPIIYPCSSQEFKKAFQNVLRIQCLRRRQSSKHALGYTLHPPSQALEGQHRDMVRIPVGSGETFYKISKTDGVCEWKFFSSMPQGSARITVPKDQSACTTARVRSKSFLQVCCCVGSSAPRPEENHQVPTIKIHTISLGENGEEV
Nature of the assay: Displacement of [3H]prazosine from Alpha-1 adrenergic receptor in Sprague-Dawley rat brain P2 membranes after […] by liquid scintillation counting.

Another assay deals with Nischarin (Rattus norvegicus, UniProt Q4G017). Nature of the assay: Displacement of [3H]clonidine from Imidazoline receptor 1 in Sprague-Dawley rat kidney P2 membranes after […] by liquid scintillation counting.
Nischarin, sequence (Q4G017 whole entry): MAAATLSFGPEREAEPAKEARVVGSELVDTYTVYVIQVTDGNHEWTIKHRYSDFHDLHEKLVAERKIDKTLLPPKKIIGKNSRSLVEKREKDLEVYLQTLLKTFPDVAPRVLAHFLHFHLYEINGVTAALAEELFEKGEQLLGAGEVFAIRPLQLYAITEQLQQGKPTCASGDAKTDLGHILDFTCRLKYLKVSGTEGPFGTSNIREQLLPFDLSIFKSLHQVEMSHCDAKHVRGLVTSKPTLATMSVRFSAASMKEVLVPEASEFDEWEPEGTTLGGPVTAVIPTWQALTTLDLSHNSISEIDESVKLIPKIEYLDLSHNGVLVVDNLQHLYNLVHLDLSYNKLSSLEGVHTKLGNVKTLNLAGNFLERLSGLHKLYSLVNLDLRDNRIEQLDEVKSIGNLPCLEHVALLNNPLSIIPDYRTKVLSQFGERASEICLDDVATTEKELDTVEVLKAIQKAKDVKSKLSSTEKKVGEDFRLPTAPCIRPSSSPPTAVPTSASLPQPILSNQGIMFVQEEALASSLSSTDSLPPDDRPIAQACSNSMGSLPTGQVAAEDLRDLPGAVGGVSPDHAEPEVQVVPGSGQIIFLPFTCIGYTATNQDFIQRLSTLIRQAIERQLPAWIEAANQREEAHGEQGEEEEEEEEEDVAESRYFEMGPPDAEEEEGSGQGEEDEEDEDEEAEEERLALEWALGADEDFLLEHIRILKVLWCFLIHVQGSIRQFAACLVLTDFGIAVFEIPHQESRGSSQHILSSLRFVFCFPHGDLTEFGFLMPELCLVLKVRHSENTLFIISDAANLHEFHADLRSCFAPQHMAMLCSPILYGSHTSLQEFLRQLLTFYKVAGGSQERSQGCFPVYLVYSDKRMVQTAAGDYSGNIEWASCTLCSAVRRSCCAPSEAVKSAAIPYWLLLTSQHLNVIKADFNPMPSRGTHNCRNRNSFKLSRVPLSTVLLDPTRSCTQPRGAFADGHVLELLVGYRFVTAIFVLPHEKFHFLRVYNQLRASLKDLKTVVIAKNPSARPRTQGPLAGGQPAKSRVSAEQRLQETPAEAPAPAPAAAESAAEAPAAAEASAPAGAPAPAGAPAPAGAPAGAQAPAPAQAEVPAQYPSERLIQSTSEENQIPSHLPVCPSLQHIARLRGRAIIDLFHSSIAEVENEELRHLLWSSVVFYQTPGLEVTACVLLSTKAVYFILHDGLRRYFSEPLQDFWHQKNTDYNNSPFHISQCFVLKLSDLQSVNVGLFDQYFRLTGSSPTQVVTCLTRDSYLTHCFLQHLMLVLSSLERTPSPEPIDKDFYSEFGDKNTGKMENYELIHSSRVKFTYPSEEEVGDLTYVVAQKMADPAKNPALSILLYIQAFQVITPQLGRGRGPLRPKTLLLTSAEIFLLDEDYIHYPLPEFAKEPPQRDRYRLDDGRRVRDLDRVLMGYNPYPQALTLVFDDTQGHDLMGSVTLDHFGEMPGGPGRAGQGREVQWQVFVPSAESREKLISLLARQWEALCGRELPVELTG

Usually Ki stands for the equilibrium dissociation constant of an inhibitor or competing ligand from its target. `Cl.Fc1ccc2ccn(CC3=NCCN3)c2c1`: the inhibition constant Ki in assay [1] was found to be 240 nM; in assay [2], 15.9 nM; in assay [3], 87.83 nM; on Nischarin, 789 nM.

On to `CCc1cccc2ccn(CC3=NCCN3)c12.Cl`, for which the Ki in assay [1] amounted to 880 nM; in assay [2], 71.7 nM; in assay [3], 439.4 nM; on Nischarin, 45800 nM.

`Brc1ccc2c(ccn2CC2=NCCN2)c1.Cl`: the Ki in assay [1] was 30.3 nM; in assay [2] it was 596.7 nM; in assay [3], 1348 nM; at Nischarin, 10500 nM.

Turning to `Br.c1ccc(COc2cccc3ccn(CC4=NCCN4)c23)cc1`, the Ki is 10400 nM in assay [1], 5241 nM in assay [2], 381.8 nM in assay [3] and 36300 nM at Nischarin.

Consider `Brc1cccc2c1ccn2CC1=NCCN1.Cl`, for which the Ki in assay [1] amounted to 179 nM; in assay [2], 84.4 nM; in assay [3], 257.7 nM; at Nischarin, 468 nM.

For the compound `Cl.Fc1ccc2c(ccn2CC2=NCCN2)c1`, the Ki came to 66.3 nM in assay [1], 68.43 nM in assay [2], 306.7 nM in assay [3] and 32.1 nM on Nischarin.

For the compound `Cl.Fc1cccc2ccn(CC3=NCCN3)c12`, the Ki in assay [1] stood at 32.1 nM; in assay [2] it was 16.57 nM; in assay [3], 36.7 nM; on Nischarin, 9630 nM.

Turning to `Cl.Clc1ccc2ccn(CC3=NCCN3)c2c1`, the Ki in assay [1] came to 48.5 nM; in assay [2], 94.5 nM; in assay [3], 228.7 nM; on Nischarin, 5580 nM.

As for `Br.COc1cccc2ccn(CC3=NCCN3)c12`, the Ki in assay [1] was 2470 nM; in assay [2], 280 nM; in assay [3], 394.2 nM; at Nischarin, 588000 nM.

With `Brc1cccc2ccn(CC3=NCCN3)c12.Cl`, the Ki in assay [1] came to 254 nM; in assay [2], 18.3 nM; in assay [3], 7.91 nM; at Nischarin, 79.2 nM.

As for `Cl.Fc1cccc2c1ccn2CC1=NCCN1`, the Ki is 249 nM in assay [1], 46.97 nM in assay [2], 27.56 nM in assay [3] and 14600 nM at Nischarin.
